Key:
MavL40-404 = target: T1, MavL40-404 (Legionella pneumophila, UniProt Q5ZSJ1)
T1 construct: gene lpg2526

LnaB = target: T2, LnaB (Legionella pneumophila, UniProt Q5ZSJ0); assay: biochemical
T2 construct: gene lpg2527
T2 sequence (Q5ZSJ0 1-558 limits assumed): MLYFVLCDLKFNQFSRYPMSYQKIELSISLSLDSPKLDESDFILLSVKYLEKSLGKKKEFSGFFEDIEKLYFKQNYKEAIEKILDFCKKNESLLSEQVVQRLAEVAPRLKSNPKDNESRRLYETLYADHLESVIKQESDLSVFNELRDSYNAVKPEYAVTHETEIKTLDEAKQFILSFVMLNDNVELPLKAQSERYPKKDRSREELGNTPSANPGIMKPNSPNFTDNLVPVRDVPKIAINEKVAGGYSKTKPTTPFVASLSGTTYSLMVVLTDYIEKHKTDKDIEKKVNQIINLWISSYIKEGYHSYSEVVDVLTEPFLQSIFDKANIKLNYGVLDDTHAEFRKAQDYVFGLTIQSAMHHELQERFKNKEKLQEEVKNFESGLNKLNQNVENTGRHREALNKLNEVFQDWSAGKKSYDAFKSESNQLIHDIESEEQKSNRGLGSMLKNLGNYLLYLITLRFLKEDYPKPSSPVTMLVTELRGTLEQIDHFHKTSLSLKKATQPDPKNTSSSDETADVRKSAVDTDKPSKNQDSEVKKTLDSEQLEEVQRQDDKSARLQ

T1 sequence (Q5ZSJ1 40-404 limits assumed): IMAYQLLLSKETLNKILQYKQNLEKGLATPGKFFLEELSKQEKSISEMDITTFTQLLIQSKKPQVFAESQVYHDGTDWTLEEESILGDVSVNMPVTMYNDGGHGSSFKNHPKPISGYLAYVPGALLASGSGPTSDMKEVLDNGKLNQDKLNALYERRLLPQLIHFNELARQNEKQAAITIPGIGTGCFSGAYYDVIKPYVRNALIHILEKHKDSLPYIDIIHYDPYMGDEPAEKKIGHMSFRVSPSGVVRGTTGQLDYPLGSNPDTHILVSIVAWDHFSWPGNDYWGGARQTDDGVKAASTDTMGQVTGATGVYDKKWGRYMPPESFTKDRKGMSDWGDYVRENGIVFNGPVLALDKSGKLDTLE

SMILES | Kd (MavL40-404) [µM] | Kd (LnaB) [µM]
Nc1ncnc2c1ncn2[C@@H]1O[C@H](COP(=O)(O)OP(=O)(O)OC[C@H]2OC(O)[C@H](O)[C@@H]2O)[C@@H](O)[C@H]1O (some centres unmarked) [ADPR] | 25 ± 3.24 | 
Nc1ncnc2c1ncn2[C@@H]1O[C@H](COP(=O)(O)OP(=O)(O)OP(=O)(O)O)[C@@H](O)[C@H]1O [ATP] |  | 15.4 ± 4.85
